According to US8058243B2, “Method for treating a brain cancer with ifenprodil” (HSC Research and Development Limited Partnership, priority 2006, dated 2011):
Counter-ions that a name gives are not always drawn. Like-named read-outs stand apart in the source and are kept apart here.

System: murine neural precursor cells (neurosphere cultures)
Assay: HTS of LOPAC library against secondary neurosphere cultures, MTT proliferation assay at 3 μM, day 7 (z score, P value)
Format: cell-based, mouse
[1] = LOPAC library screen, 3 μM, MTT, secondary neurosphere cultures, day 7
[2] = LOPAC primary screen, neurosphere MTT proliferation, 3 μM, day 7
[3] = yes/no: significantly inhibited neurosphere proliferation (P<0.01) in the primary screen
[4] = LOPAC screen, neurosphere MTT proliferation, 3 μM, day 7
[5] = yes/no: significantly inhibited neurosphere proliferation (P<0.01) in primary screen
[6] = yes = significantly inhibited neurosphere proliferation (P<0.01) in the primary screen
[7] = yes/no: significantly inhibited neurosphere proliferation in primary screen
[8] = LOPAC library screen at 3 μM, secondary neurosphere cultures, MTT
[9] = primary LOPAC screen, 3 μM, MTT, neurosphere proliferation
[10] = yes/no: significantly inhibited neurosphere proliferation in the primary screen
[11] = LOPAC library screen, 3 μM, MTT, neurosphere cultures

Cc1nc(-c2ccc(-c3ccc(C(=O)N4CCc5cc6c(cc54)C4(CCN(C)CC4)CO6)cc3)c(C)c2)no1.Cl [SB 224289 hydrochloride]
Z Score [1]: −4.786 | Z score [2]: −4.786 | Activity [3]: yes

Cl.NCC(O)c1ccc(O)cc1 (stereo not shown) [(B1)-Octopamine hydrochloride]
Z Score: −1.567

R(−)-Denopamine
Z Score [1]: −4.486 | Z score [2]: −4.486 | Activity [3]: yes

Cl.N[C@@H](CCl)C(=O)O [beta-Chloro-L-alanine hydrochloride]
Z Score: −1.39 | Z score [4]: −1.390 | Activity [5]: no

Cl.Fc1ccc(CN(C2=NCCN2)c2c(Cl)cccc2Cl)cc1 [IMID-4F hydrochloride]
Z Score: −1.906 | Z score [2]: −1.906 | Activity [5]: no

C[C@@H]1O[C@H](C[N+](C)(C)C)C[C@H]1O.[Cl-] (racemic) [(±)-Muscarine chloride]
Z score [2]: −1.905 | Activity [6]: no

CC1=C(CC(=O)O)c2cc(F)ccc2/C1=C\c1ccc(S(C)(=O)=O)cc1 [Sulindac sulfone]
Z Score: 0.5924 | Z score [2]: 0.592 | Activity [7]: no

CCCCCCCCCCCCCC(=O)O[C@@H]1[C@@H](C)[C@@]2(O)[C@@H](C=C(CO)C[C@]3(O)C(=O)C(C)=C[C@@H]23)[C@@H]2C(C)(C)[C@]12OC(C)=O [Phorbol 12-myristate 13-acetate]
Z Score: −0.265 | Z score [2]: −0.265 | Activity [7]: no

C/C=C(/C)C(=O)O[C@H]1C(C)=C2[C@H]([C@@H]1OC(=O)CCCCCCC)[C@@](C)(OC(C)=O)C[C@H](OC(=O)CCC)[C@@]1(O)[C@H]2OC(=O)[C@@]1(C)O [Thapsigargin]
Z Score [1]: −9.559 | Z score [2]: −9.559 | Activity [6]: yes

NC[C@@H]1O[C@H](O[C@H]2[C@@H](O)[C@H](O[C@@H]3[C@@H](O)[C@H](N)C[C@H](N)[C@H]3O[C@H]3O[C@H](CO)[C@@H](O)[C@H](O)[C@H]3N)O[C@@H]2CO)[C@H](N)[C@@H](O)[C@@H]1O.O=S(=O)(O)O [Paramomycin sulfate]
Z score [2]: 0.821 | Activity [7]: no

Oc1ccc2c3c1O[C@H]1c4[nH]c5ccccc5c4C[C@@]4(O)[C@@H](C2)N(CC2CC2)CC[C@]314 [Naltrindole hydrochloride]
Z Score: −0.314 | Z score [2]: −0.314 | Activity [6]: no

OCc1cc(C(O)CNCCCCCCOCCCCc2ccccc2)ccc1O (stereo not shown) [Salmeterol]
Activity: no | Z Score [8]: −0.4896 | Z score [2]: −0.490

Br.Br.N=C(N)SCCc1ccc(CCSC(=N)N)cc1 [1,4-PBIT dihydrobromide]
Z Score: −1.179 | Z score [2]: −1.179 | Activity [7]: no

CCCn1c(=O)c2[nH]c(C3CCCC3)nc2n(CCCOC(=O)c2ccc(S(=O)(=O)F)cc2)c1=O [FSCPX]
Z Score: 0.7825 | Z score [2]: 0.782 | Activity [5]: no

NC(N)=Nc1ccc2[nH]c3c(c2c1)C[C@@]1(O)[C@H]2Cc4ccc(O)c5c4[C@@]1(CCN2CC1CC1)[C@H]3O5.O=C(O)C(F)(F)F.O=C(O)C(F)(F)F
Z Score: −0.2037 | Z score [2]: −0.204 | Activity [5]: no

N[C@@H](Cn1cc(I)c(=O)[nH]c1=O)C(=O)O [S-5-Iodowillardiine]
Z Score: −0.3551 | Z score [9]: −0.355 | Activity [10]: no

CN(C)C(=O)Oc1cccc([N+](C)(C)C)c1 [Neostigmine bromide]
Z Score: 1.228 | Z score [2]: 1.228 | Activity [6]: no

CC(C)N(CCC(C(N)=O)(c1ccccc1)c1ccccn1)C(C)C (stereo not shown) [Disopyramide]
Z Score [1]: −4.179 | Z score [2]: −4.179 | Activity [3]: yes

C[N+]1(C)CCOC(O)(c2ccc(-c3ccc(C4(O)C[N+](C)(C)CCO4)cc3)cc2)C1.[Br-].[Br-] (stereo not shown) [Hemicholinium-3]
Z Score: 0.7871 | Z score [2]: 0.787 | Activity [5]: no

CCC(=O)N1CCN(C(=O)c2ccccc2)CC1 [DM 235]
Z Score: −2.019 | Z score [4]: −2.019 | Activity [5]: no

CP(=O)(O)CCCN.Cl [SKF 97541 hydrochloride]
Z Score: −0.7355 | Z score [9]: −0.736 | Activity [10]: no

NC(C(=O)O)C(O)C(=O)O (racemic) [DL-threo-beta-hydroxyaspartic acid]
Z Score: −0.5215 | Z score [2]: −0.522 | Activity [5]: no

Clc1cccc(Cl)c1N=C1NCCN1 [Clonidine hydrochloride]
Z Score [11]: 1.041 | Z score [4]: 1.041 | Activity [5]: no

CC[C@H](C)C(=O)O[C@H]1CCC=C2C=C[C@H](C)[C@H](CC[C@@H]3C[C@@H](O)CC(=O)O3)[C@H]21 [Mevastatin]
Z Score [1]: −6.278 | Z score [2]: −6.278 | Activity [6]: yes

Cc1cccc(C(=O)NCN2CCN(c3ccccc3C#N)CC2)c1.O=C(O)/C=C\C(=O)O [PD 168,077 maleate]
Z Score: −1.516 | Z score [2]: −1.516 | Activity [7]: no

CCCc1c(OCCCOc2ccc(OCC(=O)O)cc2)ccc(C(C)=O)c1O [L-165,041]
Z Score: 0.3062 | Z score [2]: 0.306 | Activity [5]: no

CNc1ncnc2c1ncn2[C@@H]1O[C@H](CO)[C@@H](O)[C@H]1O [N6-Methyladenosine]
Z Score (168 h, 3 µM): 0.7424 | Z score (168 h, 3 µM): 0.742 | Activity [6]: no

CC1CNCCN1S(=O)(=O)c1cccc2cnccc12.Cl.Cl (stereo not shown) [H-7 dihydrochloride]
Z Score: 0.6813 | Z score [2]: 0.681

O=C(O)c1cc(=O)c2c(Cl)cc(Cl)cc2[nH]1 [5,7-Dichlorokynurenic acid]
Z Score [11]: 0.9011 | Z score [2]: 0.901 | Activity [5]: no

CC(N)(C(=O)O)c1ccc(C(=O)O)cc1 (racemic) [(±)-alpha-Methyl-4-carboxyphenylglycine]
Z score [2]: 0.727 | Activity [6]: no

Cl.Cl.Cn1cnc(CCN)c1 [1-Methylhistamine dihydrochloride]
Z score [2]: 0.307 | Activity [6]: no

NC(=O)CN1CC(O)CC1=O (stereo not shown) [Oxiracetam]
Z Score [8]: −0.6131 | Z score [2]: −0.613 | Activity [7]: no

COc1ccccc1N1CCN(CCN(C(=O)c2ccc(F)cc2)c2ccccn2)CC1.Cl.Cl [p-MPPF dihydrochloride]
Z Score: −2.16

COc1cc(CC(C)N)c(OC)cc1I.Cl (stereo not shown) [(B1)-DOI hydrochloride]
Z Score: −1.345

NC(=O)c1ccccc1 [Benzamide]
Z score (168 h, 3 µM): 0.550 | Activity [10]: no

COc1cc2c(cc1C(F)(F)F)N(C(=O)Nc1cc(F)cc(-c3cccnc3)c1)CC2 [SB 228357]
Z Score: 0.03426 | Z score [2]: 0.034 | Activity [5]: no

O=C(Nc1cc(C(=O)Nc2ccc(S(=O)(=O)[O-])cc2S(=O)(=O)[O-])cc(C(=O)Nc2ccc(S(=O)(=O)[O-])cc2S(=O)(=O)[O-])c1)Nc1cc(C(=O)Nc2ccc(S(=O)(=O)[O-])cc2S(=O)(=O)[O-])cc(C(=O)Nc2ccc(S(=O)(=O)[O-])cc2S(=O)(=O)[O-])c1.[Na+].[Na+].[Na+].[Na+].[Na+].[Na+].[Na+].[Na+] [NF449 octasodium salt]
Z Score: 1.851 | Z score [2]: 1.851 | Activity [6]: no

(±)-Pindobind
Z score [2]: 0.257 | Activity [7]: no

O=c1[nH]cc(F)c(=O)[nH]1 [5-Fluorouracil]
Z Score [1]: −7.749 | Z score [2]: −7.749 | Activity [6]: yes

Cc1ccc(=O)n(-c2ccccc2)c1 [Pirfenidone]
Z Score [1]: −1.482 | Z score [2]: −1.482 | Activity [7]: no

CC1=NN=C(c2ccc(N)cc2)c2cc3c(cc2C1)OCO3 [GYKI 52466 hydrochloride]
Z Score [1]: −1.864 | Z score [2]: −1.864 | Activity [6]: no

Clc1ccc(C(c2ccc(Cl)cc2)n2cc[n+](CC(OCc3ccc(Cl)cc3Cl)c3ccc(Cl)cc3Cl)c2)cc1 (stereo not shown) [Calmidazolium chloride]
Z Score (168 h, 3 µM): −8.582 | Z score (168 h, 3 µM): −8.582 | Activity [6]: yes

COc1ccccc1N1CCN(CCN2C(=O)CC3(CCCC3)CC2=O)CC1 [BMY 7378 dihydrochloride]
Z Score [8]: −0.6588 | Z score [4]: −0.659 | Activity [5]: no

CO[C@@]1(NC(=O)CSCC#N)C(=O)N2C(C(=O)O)=C(CSc3nnnn3C)CS[C@@H]21 [Cefmetazole sodium]
Z Score (LOPAC library screen at 3 μM, MTT, secondary neurosphere cultures, screened in singlets): 2.503 | Z score [4]: 2.503 | Activity [5]: no

COCCc1ccc(OCC(O)CNC(C)C)cc1.O=C(O)C(O)C(O)C(=O)O (racemic) [(±)-Metoprolol (+)-tartate]
Z score [2]: −0.269 | Activity [6]: no

O=C(O)c1ccccc1Nc1ccccc1 [N-Phenylanthranilic acid]
Z Score [1]: −1.61 | Z score [2]: −1.610 | Activity [7]: no

Cc1cccc(/C=C/c2ccccc2)n1 [SIB 1893]
Z Score: −0.848 | Z score [2]: −0.848 | Activity [7]: no

N=C(N)NC(=O)Cc1c(Cl)cccc1Cl [Guanfacine hydrochloride]
Z Score [11]: 0.9271

CCCCCN(CCCCC)C(=O)C(CCC(=O)O)NC(=O)c1ccc(Cl)c(Cl)c1 (stereo not shown) [Lorglumide sodium]
Z Score [1]: −2.092 | Z score [2]: −2.092 | Activity [6]: no

C[C@H](O)[C@H](O)[C@H]1CNc2nc(N)[nH]c(=O)c2N1.Cl
Z Score [11]: 0.9757 | Z score [9]: 0.976 | Activity [10]: no

CCCCC1C(=O)N(c2ccccc2)N(c2ccccc2)C1=O [Phenylbutazone]
Z Score [11]: 0.7902 | Z score [2]: 0.790

CCOC(=O)N1CCC(=C2c3ccc(Cl)cc3CCc3cccnc32)CC1 [Loratadine]
Z Score [1]: −1.823 | Z score [2]: −1.823 | Activity [5]: no
